In the experiment the test system is luminescent Pseudomonas aeruginosa. The experiment in a line: LD50 of luminescent Pseudomonas aeruginosa in mice, effect of anesthesia or adjuvant on virulence. The experiment is classed as in vivo. The conditions noted are these: Ketamine-sedated mice; non-anesthetized mice: approximately 2.5×10^6 CFU. The text has this: One of the factors typically determined in the calibration process is a suitable dose of pathogen for the selected model system of sepsis. This dose is preferably based on the LD50 of the pathogen in the particular animal model of sepsis being used. The LD50, or “Lethal Dose 50”, is a measure for quantifying the effects of a perturbation (e.g., a test compound, procedure, or bacterial infection) on a biological system. It represents the 50% mortality point—that is, the concentration or level of a particular perturbation at which half of the animals die by the end of the experiment.
The LD50 may change depending on the experimental parameters. The measure is therefore expressed as an LD50 for a given experimental system. By way of example, it was discovered in the course of experiments performed in support of the present invention that the type of anesthesia used to prepare the animals for imaging can have a significant effect on the LD50. Specifically, it was discovered that anesthesia induced by injectable Ketamine may potentiate the virulence of some pathogens.
For example, it was found during experiments performed in support of the present invention that pathogen virulence is boosted by administration of 5% (by volume) hog gastric mucin to the host. […]

As for `CNC1(c2ccccc2Cl)CCCCC1=O` (stereo not shown) [Ketamine], the “LD50 of luminescent Pseudomonas aeruginosa” value was ~4.6×10^5 CFU.

The record behind these values is patent US6964856B2, “Animal models and methods for sepsis” (priority 1999, dated 2005).
